Results published in the supplement of paper PMC10627819.

Key:
S. aureus DSM 20231 [1] = experiment: fitness (endpoint OD595 vs no drug) (fraction); higher = more growth
In short: (§1)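 Fitness compares growth at the stationary-phase transition with the robust mean of no-drug control wells, as a ratio of optical densities. The ratio is capped at 1. Wells of 384-well plates held 30 µl, or 55 µl for S. pneumoniae, inoculated at OD595 0.01. Readings at OD595 every 30 min for 14 h at 37 °C were corrected against the first reading.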

S. aureus Newman [2] = experiment: as above
In short: as §1

S. pneumoniae D39V [3] = experiment: as above
In short: as §1

B. subtilis 168 = experiment: Bliss interaction score (quartile over a dose matrix) (fitness difference); higher = more antagonism (negative = synergy)
In short: (§2)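 Each OD595 reading at entry into stationary phase was scaled to the robust mean of the untreated wells on its plate, with a ceiling of 1. These ratios define fitness, and single-drug fitness was inferred from combinations. The Bliss score compares observed fitness with the product-based expectation and is reported as quartiles across all replicate types, technical, biological and donor/recipient.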

S. aureus DSM 20231 [4] = experiment: as above
In short: as §2

S. aureus Newman [5] = experiment: as above
In short: as §2

S. pneumoniae D39V [6] = experiment: as above
In short: as §2
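Throughout, for Bliss interaction score (quartile over a dose matrix): first quartile when negative (synergy) and third quartile when positive (antagonism).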
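Throughout, for fitness (endpoint OD595 vs no drug): OD595 on entry to stationary phase over no-drug wells; at most 1.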

CC1(C)S[C@@H]2[C@H](NC(=O)[C@H](N)c3ccc(O)cc3)C(=O)N2[C@H]1C(=O)O [Amoxicillin] + Cc1onc(-c2ccccc2)c1C(=O)N[C@@H]1C(=O)N2[C@@H]1SC(C)(C)[C@@H]2C(=O)O [Oxacillin]
Conditions | fitness
S. aureus DSM 20231 [1], first compound 0.0625 µg/mL, partner 0.0156 µg/mL | 0.52
S. aureus DSM 20231 [1], first compound 0.0625 µg/mL, partner 0.0312 µg/mL | 0.56
S. aureus DSM 20231 [1], first compound 0.0625 µg/mL, partner 0.0625 µg/mL | 0.459
S. aureus DSM 20231 [1], first compound 0.125 µg/mL, partner 0.0156 µg/mL | 0.342
S. aureus DSM 20231 [1], first compound 0.125 µg/mL, partner 0.0625 µg/mL | 0.263
S. aureus DSM 20231 [1], first compound 0.25 µg/mL, partner 0.0156 µg/mL | 0.107
S. aureus DSM 20231 [1], first compound 0.25 µg/mL, partner 0.0312 µg/mL | 0.0945
S. aureus DSM 20231 [1], first compound 0.25 µg/mL, partner 0.0625 µg/mL | 0.06
S. aureus DSM 20231 [1], first compound 0.5 µg/mL, partner 0.0156 µg/mL | 0.0188
S. aureus DSM 20231 [1], first compound 0.5 µg/mL, partner 0.0312 µg/mL | 0.0143
S. aureus DSM 20231 [1], first compound 0.5 µg/mL, partner 0.0625 µg/mL | 0.021
S. aureus Newman [2], first compound 0.0625 µg/mL, partner 0.0156 µg/mL | 0.724
S. aureus Newman [2], first compound 0.0625 µg/mL, partner 0.0312 µg/mL | 0.651
S. aureus Newman [2], first compound 0.0625 µg/mL, partner 0.0625 µg/mL | 0.575
S. aureus Newman [2], first compound 0.125 µg/mL, partner 0.0156 µg/mL | 0.674
S. aureus Newman [2], first compound 0.125 µg/mL, partner 0.0625 µg/mL | 0.547
S. aureus Newman [2], first compound 0.25 µg/mL, partner 0.0156 µg/mL | 0.663
S. pneumoniae D39V [3], first compound 0.0008 µg/mL, partner 0.01 µg/mL | 0.985
S. pneumoniae D39V [3], first compound 0.0008 µg/mL, partner 0.02 µg/mL | 0.831
S. pneumoniae D39V [3], first compound 0.0008 µg/mL, partner 0.04 µg/mL | 0.33
S. pneumoniae D39V [3], first compound 0.0015 µg/mL, partner 0.005 µg/mL | ≥ 1
S. pneumoniae D39V [3], first compound 0.0015 µg/mL, partner 0.01 µg/mL | 0.977
S. pneumoniae D39V [3], first compound 0.0015 µg/mL, partner 0.02 µg/mL | 0.861
S. pneumoniae D39V [3], first compound 0.0015 µg/mL, partner 0.04 µg/mL | 0.266
S. pneumoniae D39V [3], first compound 0.003 µg/mL, partner 0.005 µg/mL | 0.957
S. pneumoniae D39V [3], first compound 0.003 µg/mL, partner 0.01 µg/mL | 0.882
S. pneumoniae D39V [3], first compound 0.003 µg/mL, partner 0.02 µg/mL | 0.825
S. pneumoniae D39V [3], first compound 0.003 µg/mL, partner 0.04 µg/mL | 0.12

fitness, S. pneumoniae D39V [3], one replicate
Conditions | partner 0.005 µg/mL | partner 0.01 µg/mL | partner 0.02 µg/mL
first compound 0.0008 µg/mL | ≥ 1 | – | –
first compound 0.006 µg/mL | 0.587 | 0.476 | 0.147

Conditions | Bliss interaction score
B. subtilis 168 | 0.031
S. aureus DSM 20231 [4] | 0.104
S. aureus Newman [5] | 0.0431
S. pneumoniae D39V [6] | -0.0929

CC1(C)S[C@@H]2[C@H](NC(=O)[C@H](N)c3ccc(O)cc3)C(=O)N2[C@H]1C(=O)O [Amoxicillin] + Cn1nnc(-c2ccc(-c3ccc(N4C[C@H](CO)OC4=O)cc3F)cn2)n1 [Tedizolid]
fitness
Conditions | partner 0.03125 µg/mL | partner 0.0625 µg/mL | partner 0.125 µg/mL | partner 0.25 µg/mL | partner 0.5 µg/mL
S. aureus DSM 20231 [1], first compound 0.0625 µg/mL | – | 0.65 | 0.395 | 0.151 | –
S. aureus DSM 20231 [1], first compound 0.125 µg/mL | – | – | 0.184 | 0.0385 | –
S. aureus DSM 20231 [1], first compound 0.25 µg/mL | – | 0.0658 | 0.0466 | 0.0313 | –
S. aureus Newman [2], first compound 0.0625 µg/mL | – | 0.853 | – | – | –
S. aureus Newman [2], first compound 0.125 µg/mL | – | 0.807 | – | – | –
S. pneumoniae D39V [3], first compound 0.0008 µg/mL | 0.961 | 0.966 | 0.781 | – | –
S. pneumoniae D39V [3], first compound 0.0015 µg/mL | 0.949 | 0.94 | 0.788 | 0.692 | 0.306
S. pneumoniae D39V [3], first compound 0.003 µg/mL | 0.96 | 0.933 | 0.759 | 0.691 | 0.339

fitness, one replicate
Conditions | partner 0.0625 µg/mL | partner 0.125 µg/mL | partner 0.25 µg/mL | partner 0.5 µg/mL
S. aureus DSM 20231 [1], first compound 0.5 µg/mL | 0.015 | 0.0045 | 0.0057 | –
S. pneumoniae D39V [3], first compound 0.0008 µg/mL | – | – | 0.7 | 0.335
S. pneumoniae D39V [3], first compound 0.006 µg/mL | – | 0.562 | 0.462 | 0.283

Conditions | Bliss interaction score
B. subtilis 168 | -0.0425
S. aureus DSM 20231 [4] | -0.0515
S. aureus Newman [5] | -0.0673
S. pneumoniae D39V [6] | 0.175
